Reference: patent US20190255086A1, “Compositions and Methods for Treating an Infection” (CMPD Licensing, LLC, priority 2015, published 2019)

Assays:
[1] = tested on: Acinetobacter calcoaceticus; assay: Expected efficacy of anti-bacterial agents against various bacteria (Tables 5 and 6); conditions: Gram: neg
[2] = tested on: Klebsiella (Calymmatobacterium) granulomatis; assay: as above; conditions: Gram: neg
Acinetobacter lwoffii = assay: as above; conditions: Gram: neg
Enterococcus faecalis = assay: as above; conditions: Gram: pos
Enterococcus faecium = assay: as above; conditions: Gram: pos
Bacteroides fragilis = assay: as above; conditions: Gram: anaer
Serratia marcescens = assay: as above; conditions: Gram: neg
Proteus vulgaris = assay: as above; conditions: Gram: neg
Klebsiella pneumoniae = assay: as above; conditions: Gram: neg
Bordetella pertussis = assay: as above; conditions: Gram: neg
Providencia stuartii = assay: as above; conditions: Gram: neg
Francisella tularensis = conditions: expected efficacy; Francisella tularensis; Gram: neg
Clostridium difficile = assay: Expected efficacy of anti-bacterial agents against various bacteria (Tables 5 and 6); conditions: Gram: anaer
Streptococcus pneumoniae = assay: as above; conditions: Gram: pos
Neisseria meningitidis = assay: as above; conditions: Gram: neg
[3] = tested on: Methicillin resistant staph aureus (MRSA); assay: as above; conditions: Gram: pos
Pseudomonas aeruginosa = assay: as above; conditions: Gram: neg
Acinetobacter baumannii = assay: as above; conditions: Gram: neg
Escherichia coli = assay: as above; conditions: Gram: neg
Moraxella catarrhalis = assay: as above; conditions: Gram: neg
Enterobacter sakazakii = assay: as above; conditions: Gram: neg
Chlamydia psittaci = conditions: expected efficacy; Chlamydia psittaci; Gram: n/a
Morganella morganii = assay: Expected efficacy of anti-bacterial agents against various bacteria (Tables 5 and 6); conditions: Gram: neg
Proteus mirabilis = assay: as above; conditions: Gram: neg
Enterobacter cloacae = assay: as above; conditions: Gram: neg
[4] = tested on: Staphylococcus epidermidis; assay: as above; conditions: Gram: pos
Streptococcus pyogenes = assay: as above; conditions: Gram: pos
Rickettsiae = conditions: expected efficacy; Rickettsiae; Gram: neg
Citrobacter freundii = assay: Expected efficacy of anti-bacterial agents against various bacteria (Tables 5 and 6); conditions: Gram: neg
Vibrio cholerae = assay: as above; conditions: Gram: neg
Citrobacter diversus = assay: as above; conditions: Gram: neg
Providencia rettgeri = assay: as above; conditions: Gram: neg
Bartonella bacilliformis = assay: as above; conditions: Gram: neg
Pseudomonas fluorescens = assay: as above; conditions: Gram: neg
Legionella pneumophila = conditions: expected efficacy; Legionella pneumophila; Gram: neg
Streptococcus agalactiae = assay: Expected efficacy of anti-bacterial agents against various bacteria (Tables 5 and 6); conditions: Gram: pos
Haemophilus influenzae = assay: as above; conditions: Gram: neg
Brucella species = conditions: expected efficacy; Brucella species; Gram: neg
Enterobacter aerogenes = assay: Expected efficacy of anti-bacterial agents against various bacteria (Tables 5 and 6); conditions: Gram: neg
Mycoplasma pneumoniae = assay: as above; conditions: Gram: n/a
[5] = tested on: Staphylococcus aureus (MSSA); assay: as above; conditions: Gram: pos
Campylobacter jejuni = assay: as above; conditions: Gram: neg
Corynebacterium jeikeium = assay: as above; conditions: Gram: pos
Chlamydia pneumoniae = assay: as above; conditions: Gram: n/a
Clostridium perfringens = conditions: expected efficacy; Clostridium perfringens; Gram: anaer
Klebsiella oxytoca = assay: Expected efficacy of anti-bacterial agents against various bacteria (Tables 5 and 6); conditions: Gram: neg
Chlamydia trachomatis = assay: as above; conditions: Gram: n/a
[6] = tested on: Haemophilus parainfluenzae; assay: as above; conditions: Gram: neg
Shigella sonnei = assay: as above; conditions: Gram: neg
Salmonella typhi = assay: as above; conditions: Gram: neg
Shigella dysenteriae = assay: as above; conditions: Gram: neg
Neisseria gonorrhoeae = assay: as above; conditions: Gram: neg
Shigella flexneri = assay: as above; conditions: Gram: neg
Shigella boydii = assay: as above; conditions: Gram: neg
Yersinia pestis = conditions: expected efficacy; Yersinia pestis; Gram: neg
Candida species = assay: Expected efficacy of anti-fungal agents against various fungi (Table 4)

CC[C@H]1OC(=O)[C@H](C)[C@@H](O[C@H]2C[C@@](C)(OC)[C@@H](O)[C@H](C)O2)[C@H](C)[C@@H](O[C@@H]2O[C@H](C)C[C@H](N(C)C)[C@H]2O)[C@](C)(O)C[C@@H](C)CN(C)[C@H](C)[C@@H](O)[C@]1(C)O [Azithromycin]
Efficacy of various antibiotic agents [1]: no
Efficacy of various antibiotic agents [2]: no
Efficacy of various antibiotic agents (Acinetobacter lwoffii): no
Efficacy of various antibiotic agents (Enterococcus faecalis): no
Efficacy of various antibiotic agents (Enterococcus faecium): no
Efficacy of various antibiotic agents (Bacteroides fragilis): no
Efficacy of various antibiotic agents (Serratia marcescens): no
Efficacy of various antibiotic agents (Proteus vulgaris): no
Efficacy of various antibiotic agents (Klebsiella pneumoniae): no
Efficacy of various antibiotic agents (Bordetella pertussis): yes
Efficacy of various antibiotic agents (Providencia stuartii): no
Efficacy of various antibiotic agents (Francisella tularensis): no
Efficacy of various antibiotic agents (Clostridium difficile): no
Efficacy of various antibiotic agents (Streptococcus pneumoniae): yes
Efficacy of various antibiotic agents (Neisseria meningitidis): yes
Efficacy of various antibiotic agents [3]: no
Efficacy of various antibiotic agents (Pseudomonas aeruginosa): no
Efficacy of various antibiotic agents (Acinetobacter baumannii): no
Efficacy of various antibiotic agents (Escherichia coli): no
Efficacy of various antibiotic agents (Moraxella catarrhalis): yes
Efficacy of various antibiotic agents (Enterobacter sakazakii): no
Efficacy of various antibiotic agents (Chlamydia psittaci): yes
Efficacy of various antibiotic agents (Morganella morganii): no
Efficacy of various antibiotic agents (Proteus mirabilis): no
Efficacy of various antibiotic agents (Enterobacter cloacae): no
Efficacy of various antibiotic agents [4]: yes
Efficacy of various antibiotic agents (Streptococcus pyogenes): yes
Efficacy of various antibiotic agents (Rickettsiae): yes
Efficacy of various antibiotic agents (Citrobacter freundii): no
Efficacy of various antibiotic agents (Vibrio cholerae): yes
Efficacy of various antibiotic agents (Citrobacter diversus): no
Efficacy of various antibiotic agents (Providencia rettgeri): no
Efficacy of various antibiotic agents (Bartonella bacilliformis): yes
Efficacy of various antibiotic agents (Pseudomonas fluorescens): no
Efficacy of various antibiotic agents (Legionella pneumophila): yes
Efficacy of various antibiotic agents (Streptococcus agalactiae): yes
Efficacy of various antibiotic agents (Haemophilus influenzae): yes
Efficacy of various antibiotic agents (Brucella species): no
Efficacy of various antibiotic agents (Enterobacter aerogenes): no
Efficacy of various antibiotic agents (Mycoplasma pneumoniae): yes
Efficacy of various antibiotic agents [5]: yes
Efficacy of various antibiotic agents (Campylobacter jejuni): yes
Efficacy of various antibiotic agents (Corynebacterium jeikeium): no
Efficacy of various antibiotic agents (Chlamydia pneumoniae): yes
Efficacy of various antibiotic agents (Clostridium perfringens): no
Efficacy of various antibiotic agents (Klebsiella oxytoca): no
Efficacy of various antibiotic agents (Chlamydia trachomatis): yes

O=C(O)c1cn(C2CC2)c2cc(N3CCNCC3)c(F)cc2c1=O [Ciprofloxacin]
Efficacy of various antibiotic agents [6]: yes
Efficacy of various antibiotic agents (Enterococcus faecium): no
Efficacy of various antibiotic agents (Bacteroides fragilis): no
Efficacy of various antibiotic agents (Serratia marcescens): yes
Efficacy of various antibiotic agents (Proteus vulgaris): yes
Efficacy of various antibiotic agents (Klebsiella pneumoniae): yes
Efficacy of various antibiotic agents (Shigella sonnei): yes
Efficacy of various antibiotic agents (Salmonella typhi): yes
Efficacy of various antibiotic agents (Providencia stuartii): yes
Efficacy of various antibiotic agents (Francisella tularensis): yes
Efficacy of various antibiotic agents (Neisseria meningitidis): yes
Efficacy of various antibiotic agents [3]: no
Efficacy of various antibiotic agents (Pseudomonas aeruginosa): yes
Efficacy of various antibiotic agents (Shigella dysenteriae): yes
Efficacy of various antibiotic agents (Escherichia coli): yes
Efficacy of various antibiotic agents (Moraxella catarrhalis): yes
Efficacy of various antibiotic agents (Morganella morganii): yes
Efficacy of various antibiotic agents (Proteus mirabilis): yes
Efficacy of various antibiotic agents (Neisseria gonorrhoeae): yes
Efficacy of various antibiotic agents [4]: yes
Efficacy of various antibiotic agents (Rickettsiae): yes
Efficacy of various antibiotic agents (Citrobacter freundii): yes
Efficacy of various antibiotic agents (Vibrio cholerae): yes
Efficacy of various antibiotic agents (Citrobacter diversus): yes
Efficacy of various antibiotic agents (Providencia rettgeri): yes
Efficacy of various antibiotic agents (Bartonella bacilliformis): yes
Efficacy of various antibiotic agents (Pseudomonas fluorescens): yes
Efficacy of various antibiotic agents (Shigella flexneri): yes
Efficacy of various antibiotic agents (Legionella pneumophila): yes
Efficacy of various antibiotic agents (Haemophilus influenzae): yes
Efficacy of various antibiotic agents (Shigella boydii): yes
Efficacy of various antibiotic agents (Enterobacter aerogenes): yes
Efficacy of various antibiotic agents (Campylobacter jejuni): yes
Efficacy of various antibiotic agents (Corynebacterium jeikeium): no
Efficacy of various antibiotic agents (Chlamydia pneumoniae): yes
Efficacy of various antibiotic agents (Yersinia pestis): yes
Efficacy of various antibiotic agents (Klebsiella oxytoca): yes

C[C@@H]1[C@H](O)[C@@H](C)/C=C/C=C/CC/C=C/C=C/C=C/C=C/C(O[C@H]2O[C@H](C)[C@@H](O)[C@H](N)[C@@H]2O)CC2O[C@](O)(CC(O)C(O)CCC(O)CC(O)CC(O)CC(=O)O[C@H]1C)CC(O)C2C(=O)O (stereo partly shown) [Nystatin]
Efficacy of various antifungal agents (Candida species): yes
